In ChEMBL document CHEMBL3414432, “Discovery of N-benzoxazol-5-yl-pyrazole-4-carboxamides as nanomolar SQR inhibitors” (Eur J Med Chem, 2015):

Tests used:
[1] = Inhibition of porcine heart SQR in SCR complex assessed as reduction in ubiquinol-cytochrome c reductase (complex 3) activity by measuring cytochrome c level using succinate and DCIP substrate by spectrophotometry; parameters: species or system Sus scrofa
[2] = molecular target: T1, Succinate-ubiquinone oxidoreductase (Sus scrofa, UniProt A5GZW8+D0VWV4); assay: Inhibition of porcine heart SQR in SCR complex assessed as reduction in ubiquinol-cytochrome c reductase (complex 3) activity by measuring cytochrome c level using succinate and DCIP substrate at 23 degC by spectrophotometry; type: protein-complex assay
T1 sequence (A5GZW8 whole entry): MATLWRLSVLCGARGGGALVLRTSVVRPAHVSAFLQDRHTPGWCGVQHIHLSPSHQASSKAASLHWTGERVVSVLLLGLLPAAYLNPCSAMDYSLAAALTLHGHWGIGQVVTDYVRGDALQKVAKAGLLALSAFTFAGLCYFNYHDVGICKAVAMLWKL
T1 sequence (D0VWV4 whole entry): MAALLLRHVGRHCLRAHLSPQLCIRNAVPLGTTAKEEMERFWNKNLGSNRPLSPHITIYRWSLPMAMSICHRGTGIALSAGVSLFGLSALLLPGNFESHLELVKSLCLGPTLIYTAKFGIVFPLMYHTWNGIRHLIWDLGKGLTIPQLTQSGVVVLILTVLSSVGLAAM

[3] = molecular target: T1, Succinate-ubiquinone oxidoreductase; assay: Non-competitive inhibition of porcine heart SQR in SCR complex with respect to DCIP substrate at 23 degC by double-reciprocal plot; type: protein-complex assay
[4] = Non-competitive inhibition of porcine heart SCR with respect to cytochrome c substrate at 23 degC by double-reciprocal plot; parameters: species or system Sus scrofa
[5] = Inhibition of porcine heart SCR using succinate and cytochrome c substrate at 23 degC by spectrophotometry; parameters: species or system Sus scrofa
[6] = organism: Sus scrofa; assay: Inhibition of porcine heart electron transport protein complex 3 in SCR complex at 10 uM using DBH2 and cytochrome c substrate by spectrophotometry
[7] = molecular target: Succinate-ubiquinone oxidoreductase (Sus scrofa) (UniProt A5GZW8+D0VWV4); assay: Potency index, ratio of Ki for penthiopyrad to Ki for compound against porcine heart SQR in SCR complex; type: protein-complex assay
[8] = organism: Sus scrofa; assay: Potency index, ratio of Ki for penthiopyrad to Ki for compound against porcine heart SCR
[9] = Inhibition of bovine heart SQR; parameters: species or system Bos taurus
[10] = Inhibition of rat liver SQR

SMILES	IC50 [1] [nM]	other results
Cn1cc(C(=O)Nc2ccc3oc(SCc4cccc(Br)c4)nc3c2)c(C(F)(F)F)n1	119	
Cn1cc(C(=O)Nc2ccc3oc(SCc4ccc(F)c(F)c4)nc3c2)c(C(F)F)n1	100	
COc1ccc(CSc2nc3cc(NC(=O)c4cn(C)nc4C(F)F)ccc3o2)cc1	208	
Cn1cc(C(=O)Nc2ccc3oc(SCc4ccc(Cl)cc4)nc3c2)c(C(F)F)n1	57	
Cn1cc(C(=O)Nc2ccc3oc(SCc4ccc(F)cc4)nc3c2)c(C(F)(F)F)n1	210	
Cn1cc(C(=O)Nc2ccc3oc(SCc4ccc(C#N)cc4)nc3c2)c(C(F)(F)F)n1	562	
Cn1cc(C(=O)Nc2ccc3oc(SCc4ccc(F)c(F)c4)nc3c2)c(C(F)(F)F)n1	130	
CC(C)CC(C)c1sccc1NC(=O)c1cn(C)nc1C(F)(F)F (configuration not stated) [PENTHIOPYRAD]	1320	IC50 [2]: 527 nM; Ki [3]: 327 nM; Ki [4]: 1390 nM; IC50 [5]: 1320 nM; inhibition [6]: < 10%
Cn1cc(C(=O)Nc2ccc3oc(SCc4ccc(OC(F)(F)F)cc4)nc3c2)c(C(F)(F)F)n1	88	
Cn1cc(C(=O)Nc2ccc3oc(SCc4cccc(Cl)c4)nc3c2)c(C(F)(F)F)n1	149	
Cn1cc(C(=O)Nc2ccc3oc(SCc4ccc(Cl)cc4)nc3c2)c(C(F)(F)F)n1	111	
Cn1cc(C(=O)Nc2ccc3oc(SCc4ccc(OC(F)(F)F)cc4)nc3c2)c(C(F)F)n1	38	Ratio Ki [7]: 30; IC50 [2]: 11 nM; Ratio Ki [8]: 30; Ki [3]: 11 nM; Ki [4]: 43 nM; IC50 [5]: 38 nM; inhibition [6]: 13%
COc1[nH]c(=O)c(C(=O)[C@@H](C)C[C@H](C)[C@@H](Cl)CCl)c(O)c1OC [ATPENIN A5]		IC50 [9]: 3.6 nM; IC50 [10]: 3.7 nM
Cn1cc(C(=O)Nc2ccc3oc(SCc4cccc(Br)c4)nc3c2)c(C(F)F)n1	62	
Cn1cc(C(=O)Nc2ccc3oc(SCc4ccc(C(F)(F)F)cc4)nc3c2)c(C(F)(F)F)n1	83	
Cn1cc(C(=O)Nc2ccc3oc(SCc4ccc(C(F)(F)F)cc4)nc3c2)c(C(F)F)n1	39	
Cc1ccc(CSc2nc3cc(NC(=O)c4cn(C)nc4C(F)F)ccc3o2)cc1	216	
COc1ccc(CSc2nc3cc(NC(=O)c4cn(C)nc4C(F)(F)F)ccc3o2)cc1	284	
Cc1ccc(CSc2nc3cc(NC(=O)c4cn(C)nc4C(F)(F)F)ccc3o2)cc1	269	
Cn1cc(C(=O)Nc2ccc3oc(SCc4cccc(Cl)c4)nc3c2)c(C(F)F)n1	82	
Cn1cc(C(=O)Nc2ccc3oc(SCc4ccc(F)cc4)nc3c2)c(C(F)F)n1	101	
Cn1cc(C(=O)Nc2ccc3oc(SCc4cccc(F)c4)nc3c2)c(C(F)F)n1	244	
Cn1cc(C(=O)Nc2ccc3oc(SCc4cccc(F)c4)nc3c2)c(C(F)(F)F)n1	418	
Cn1cc(C(=O)Nc2ccc3oc(SCc4ccc(C#N)cc4)nc3c2)c(C(F)F)n1	397	
